Here are results for eight compounds from US20110152229A1, “BETULINIC ACID DERIVATIVES AS ANTI-HIV AGENTS” (Duke University, priority 2006, published 2011).

As usually defined, the melting point is the temperature of the solid-liquid transition.

For one data set, the system named is HIV-1 NL4-3. The experiment in a line: Anti-HIV assay: HIV-1 NL4-3 replication in MT4 cells (p24 ELISA). In kind it is cell-based. The source says: Anti-HIV assay: A previously known HIV-1 infectivity assay was used in the experiments (See Zhu, et al. Proc. Natl. Acad. Sci. U.S.A. 2001, 98, 15227). A 96-well microtiter plate was used to set up the HIV-1 NL4-3 replication assay. HIV-1 NL4-3 at a multiplicity of infection (MOI) of 0.01 was used to infect MT4 cells. Culture supernatants were collected on day 4 post infection for p24 assay using an ELISA kit from ZeptoMetrix Corporation (Buffalo, N.Y.). Cell fusion assay: TZM cells that express luciferase upon fusion with envelope-expressing COS cells were used as fusion partners. The fusion assays were performed by transfecting monkey kidney cells (COS) with the expression vector pSRHS that contains the HIV-1 NL4-3 envelope genes. Electroporation was performed to express the HIV-1 envelope on COS cells. Briefly, COS cells (10^6) in culture medium were incubated with 2 μg of the envelope expression vector on ice for 10 min. Electroporation was performed using a gene pulser (BioRad, Hercules, Calif.) with capacitance set at 950 μF and voltage at 150 V. The transfected COS cells were cultured for one day before mixing with TZM cells. TZM cells (10×10^4) were incubated with COS cells (10^4) in 96-well flat-bottomed plates (Costar) in 100 μl culture medium. Compounds to be tested at various concentrations in 10 μl of culture medium were incubated with the cell mixtures at 37° C. for 24 hours. A Promega luciferase assay kit was used to quantify luciferase activity in the fused cells using a Biotek luminometer. The drug concentration that reduced the control HIV-1 envelope-mediated fusion by 50% is defined as 50% effective concentration (EC50). HIV-1 maturation assay: MT4 cells (10^5 cells/mL) were infected with HIV-1 NL4-3 at a multiplicity of infection (MOI) of 0.01 infectious units/cells for three days. The culture medium was removed and the infected cells were resuspended at 5×10^5 cells/mL and treated with BA derivatives at various concentrations. The virions in the culture supernatant were collected one day after drug treatment. The viral particles were spun down and subjected to Western Blot analysis of p24 and p25 as previously described. (See Zhou, et al. J. Virol. 2004, 78, 922 and Zhou, et al., Retrovirology 2004, 1, 15.)
Table 1 illustrated the effect of compound 11, 16-20 and 18b against HIV-NL4-3 in MT4 cells.
For orientation: ELISA stands for enzyme-linked immunosorbent assay.

Another data set relates to MT4 cells. Nature of the data set: Reduction of viable cells in a 4-day assay (MT4 cells). The settings on record: Homo sapiens, read-out: IC50 (drug concentration that resulted in a 50% reduction of viable cells). In kind it is cell-based.
The test system of another data set is HIV-1 NL4-3 envelope. The experiment in a line: Cell fusion assay (luciferase-based; TZM cells with envelope-expressing COS cells). The settings on record: FIG. 1; TZM/COS fusion partners, luciferase readout. The text has this: (§1) Anti-HIV assay: A previously known HIV-1 infectivity assay was used in the experiments (See Zhu, et al. Proc. Natl. Acad. Sci. U.S.A. 2001, 98, 15227). A 96-well microtiter plate was used to set up the HIV-1 NL4-3 replication assay. HIV-1 NL4-3 at a multiplicity of infection (MOI) of 0.01 was used to infect MT4 cells. Culture supernatants were collected on day 4 post infection for p24 assay using an ELISA kit from ZeptoMetrix Corporation (Buffalo, N.Y.). Cell fusion assay: TZM cells that express luciferase upon fusion with envelope-expressing COS cells were used as fusion partners. The fusion assays were performed by transfecting monkey kidney cells (COS) with the expression vector pSRHS that contains the HIV-1 NL4-3 envelope genes. Electroporation was performed to express the HIV-1 envelope on COS cells. Briefly, COS cells (10^6) in culture medium were incubated with 2 μg of the envelope expression vector on ice for 10 min. Electroporation was performed using a gene pulser (BioRad, Hercules, Calif.) with capacitance set at 950 μF and voltage at 150 V. The transfected COS cells were cultured for one day before mixing with TZM cells. TZM cells (10×10^4) were incubated with COS cells (10^4) in 96-well flat-bottomed plates (Costar) in 100 μl culture medium. […] A Promega luciferase assay kit was used to quantify luciferase activity in the fused cells using a Biotek luminometer. […]

For a further data set, the system named is HIV-1 p25 processing. Nature of the data set: HIV-1 maturation assay (Western blot of p24 and p25). In kind it is cell-based. The settings on record: FIG. 2; p25 detected by Western blot.
Description: as §1
For orientation: A western blot detects proteins with antibodies after separation by electrophoresis.

Where [1] appears, read: 96 h, cytotoxicity, 4-day assay, MT4 cells, average of at least two experiments.
The mark [2] stands for this setting: Human immunodeficiency virus 1, NL43, HIV-NL4-3 in MT4 cells, average of at least two experiments, read-out: EC50 (concentration that inhibits HIV-1 replication by 50%).
Where [3] appears, read: Human immunodeficiency virus 1, NL43, MT4, read-out: EC50 (concentration that inhibits HIV-1 replication by 50%).

SMILES strings stand for the structures. Like-named read-outs stand apart in the source and are kept apart here.

For the compound `C=C(C)[C@@H]1CC[C@]2(C(=O)O)CC[C@]3(C)[C@H](CC[C@@H]4[C@@]5(C)CC[C@H](O)C(C)(C)[C@@H]5CC[C@]43C)[C@@H]12` [Betulinic acid], the “inhibition of NL4-3 replication” value in the data set on HIV-1 NL4-3 (negative control, concentration not given) is “did not inhibit”.

Compound `C=C(C)[C@@H]1CC[C@]2(C(=O)On3nnc4ccccc43)CC[C@]3(C)[C@H](CC[C@@H]4[C@@]5(C)CC[C@H](OC(=O)C(C)(C)CC(=O)O)C(C)(C)[C@@H]5CC[C@]43C)[C@@H]12` [Compound 11, O-[3β-O-(2′,2′-Dimethylsuccinyl)-lup-20(29)-en-28-oyl]-1-hydroxybenzotriazole] yielded a melting point of 151 to 154 °C. Moreover, in the data set on MT4 cells (setting [1]), the IC50 is 2500 nM. Moreover, in the data set on HIV-1 NL4-3 (setting [2]), the EC50 is 35 nM.

With `C=C(C)[C@@H]1CC[C@]2(C(=O)NCCCCCNC(C)=O)CC[C@]3(C)[C@H](CC[C@@H]4[C@@]5(C)CC[C@H](OC(=O)CC(C)(C)C(=O)O)C(C)(C)[C@@H]5CC[C@]43C)[C@@H]12` [Compound 16, [[N-[3β-O-(3′,3′-dimethylsuccinyl)-lup-20(29)-en-28-oyl]-5-aminopentyl]-carbamoyl]methane], the melting point is 137 °C (dec.). Moreover, the IC50 in the data set with MT4 cells (setting [1]) worked out at 9000 nM. Also, the EC50 in the data set with HIV-1 NL4-3 (setting [2]) is 12 nM.

As for `C=C(C)[C@@H]1CC[C@]2(C(=O)NCCCCCCNC(C)=O)CC[C@]3(C)[C@H](CC[C@@H]4[C@@]5(C)CC[C@H](OC(=O)CC(C)(C)C(=O)O)C(C)(C)[C@@H]5CC[C@]43C)[C@@H]12` [Compound 17, [[N-[3β-O-(3′,3′-Dimethylsuccinyl)-lup-20(29)-en-28-oyl]-6-aminohexyl]-carbamoyl]methane], the melting point is 137 °C (dec.). Besides, the IC50 in the data set on MT4 cells (setting [1]) came to 7500 nM. Further, in the data set on HIV-1 NL4-3 (setting [2]), the EC50 is 7 nM.

In turn, `C=C(C)[C@@H]1CC[C@]2(C(=O)NCCCCCCCNC(C)=O)CC[C@]3(C)[C@H](CC[C@@H]4[C@@]5(C)CC[C@H](OC(=O)CC(C)(C)C(=O)O)C(C)(C)[C@@H]5CC[C@]43C)[C@@H]12` [Compound 18, [[N-[3β-O-(3′,3′-Dimethylsuccinyl)-lup-20(29)-en-28-oyl]-7-aminoheptyl]-carbamoyl]methane] displayed a melting point of 117 to 120 °C. In the data set with HIV-1 NL4-3 envelope, the “anti-fusion activity: HIV-1 envelope mediated membrane fusion” value is recorded as “inhibits HIV-1 envelope mediated membrane fusion”. The “anti-maturation activity: HIV-1 p25 processing” value with HIV-1 p25 processing is on record as “interfere with HIV-1 p25 processing”. Also, the IC50 in the data set on MT4 cells (MT4, 96 h) came out at 8000 nM. Moreover, the EC50 in the data set with HIV-1 NL4-3 (setting [3]) was 2.6 nM.

`C=C(C)[C@@H]1CC[C@]2(C(=O)NCCCCCCCNC(C)=O)CC[C@]3(C)[C@H](CC[C@@H]4[C@@]5(C)CC[C@H](O)C(C)(C)[C@@H]5CC[C@]43C)[C@@H]12` [Compound 18b, [[N-[3β-Hydroxy-lup-20(29)-en-28-oyl]-7-aminoheptyl]-carbamoyl]methane]: the “anti-fusion activity: HIV-1 envelope mediated membrane fusion” value in the data set with HIV-1 NL4-3 envelope is on record as “inhibits HIV-1 envelope mediated membrane fusion”. The IC50 in the data set on MT4 cells (MT4, 96 h) is greater than 10000 nM. The EC50 in the data set on HIV-1 NL4-3 (setting [3]) was 47 nM.

`C=C(C)[C@@H]1CC[C@]2(C(=O)NCCCCCCCCNC(C)=O)CC[C@]3(C)[C@H](CC[C@@H]4[C@@]5(C)CC[C@H](OC(=O)CC(C)(C)C(=O)O)C(C)(C)[C@@H]5CC[C@]43C)[C@@H]12` [Compound 19, [[N-[3β-O-(3′,3′-Dimethylsuccinyl)-lup-20(29)-en-28-oyl]-8-aminooctyl]-carbamoyl]methane] came in with a melting point of 113 to 115 °C. Besides, the IC50 in the data set on MT4 cells (setting [1]) was determined as 7000 nM. In the data set on HIV-1 NL4-3 (setting [2]), the EC50 was determined as 3.6 nM.

As for `C=C(C)[C@@H]1CC[C@]2(C(=O)NCCCCCCCCCNC(C)=O)CC[C@]3(C)[C@H](CC[C@@H]4[C@@]5(C)CC[C@H](OC(=O)CC(C)(C)C(=O)O)C(C)(C)[C@@H]5CC[C@]43C)[C@@H]12` [Compound 20, [[N-[3β-O-(3′,3′-Dimethylsuccinyl)-lup-20(29)-en-28-oyl]-9-aminonoyl]-carbamoyl]methane], the melting point was in the range of 120 to 122 °C. Moreover, the IC50 in the data set with MT4 cells (setting [1]) was 7400 nM. Further, in the data set with HIV-1 NL4-3 (setting [2]), the EC50 was 12 nM.
